Laboratory results from US20030219837A1, “Integrin ligand” (priority 2002, published 2003).

Key:
[1] = test system: alpha6p; assay: Abundance of alpha6p on DU145H cells with exogenous agents; assay type: cell-based, human; settings: data not shown
[2] = test system: alpha6p integrin protein levels; assay: Calcium-induced terminal differentiation assay, Western blot with AA6A; assay type: cell-based; settings: 291 nontransformed mouse keratinocytes, 24 h, dose-dependent (0.04 to 1.4 mM calcium)
Description: Cell Lines. All human cell lines were incubated at 37° C. in a humidified atmosphere of 95% air and 5% CO2. Cell lines DU145H, HaCaT, and PC3-N were grown in Iscove's modified Dulbecco's medium (Invitrogen Corporation, Carlsbad, Calif.; formerly Life Technologies, Inc.) plus 10% fetal bovine serum. Cell lines MCF-7, PC3-ATCC, LnCap, and H69 were grown in Dulbecco's modified Eagle's medium (Invitrogen Corporation, Carlsbad, Calif.; formerly Life Technologies, Inc.) plus 10% fetal bovine serum. SW480 cells were grown in super medium (Dulbecco's modified Eagle's medium plus 5% nonessential amino acids, 5% L-glutamine, 5% sodium pyruvate, 10% fetal bovine serum). Normal prostate cells, PrEC, were grown in PrEGM bullet kit medium (Clonetics, San Diego, Calif.). […]
Mouse 291 normal keratinocyte terminal differentiation can be induced by calcium. […] The presence of alpha6 and alpha6p integrins in normal 291 mouse keratinocytes was determined using whole cell lysates followed by Western blot analysis using anti-alpha6 integrin antibody, AA6A (FIG. 10A). […] The alpha6 and alpha6p integrin protein bands were quantitated using Scion Image (Cress (2000) BioTechniques 29:776-781), and the results were graphed (FIG. 10B). […]

[3] = test system: DU145H cells; assay: Surface half-life by biotinylation strategy; assay type: cell-based, human
Description: Surface Biotinylation of Cell Lines. Previous published protocols (Isberg and Leong (1990) Cell 60:861-871; Einheber et al. (1993) J. Cell Biol. 123:1223-1236) were slightly modified. Briefly, cells were grown to confluency in 100-mm tissue culture dishes and washed three times with HEPES buffer (20 mM HEPES, 130 mM NaCl, 5 mM KCl, 0.8 mM MgCl2, 1.0 mM CaCl2, pH 7.45). The cells were then incubated with 2 ml of HEPES buffer supplemented with sulfosuccinimidyl hexanoate-conjugated biotin (500 μg/ml; Pierce), which is impermeable to cell membranes (Staros (1982) Biochemistry 21:3950-3), to label cell surface proteins for 30 min at 4° C. The cells were washed three times and lysed in cold radioimmune precipitation buffer plus protease inhibitors (phenylmethylsulfonyl fluoride, 2 mM; leupeptin and aprotinin, 1 μg/ml). The lysate was briefly sonicated on ice before centrifugation at 10,000 rpm for 10 min, and the supernatant was collected for immunoprecipitations.
To determine if the novel alpha6p variant was a degradation product of the alpha6 integrin that would be rapidly cleared from the surface, the surface half-life of both integrins was examined using a biotinylation strategy. […] After 24, 48, or 72 h, the integrins were immunoprecipitated using the GoH3 antibody and analyzed under non-reducing conditions (FIG. 8, panel A).

Q: `CCCCCCCCCCCCCC(=O)O[C@@H]1[C@@H](C)[C@@]2(O)[C@@H](C=C(CO)C[C@]3(O)C(=O)C(C)=C[C@@H]23)[C@@H]2C(C)(C)[C@]12OC(C)=O` [12-O-tetradecanoylphorbol-13-acetate] was tested. Which “influence on abundance of alpha6p” value [1] did it give?
A: Its value is “not influenced”.

Q: Which “increase of alpha6p integrin protein levels” value [2] does the source give for `[Ca+2]` [Calcium, calcium] here?
A: Its value is 3 fold.

Q: Which “influence on abundance of alpha6p” value [1] does the source give for aprotinin here?
A: Its value is “not influenced”.

Q: With `CC(=O)N[C@@H](CC(C)C)C(=O)N[C@@H](CC(C)C)C(=O)N[C@H](C=O)CCCNC(=N)N` [leupeptin] as the molecule, how does the “influence on abundance of alpha6p” value [1] read?
A: Its value is “not influenced”.

Q: `[Ca+2].[Cl-].[Cl-]` [CaCl2] was tested. Which “influence on abundance of alpha6p” value [1] did it give?
A: Its value is “not influenced”.

Q: How did the “influence on abundance of alpha6p” value [1] turn out when kallikrein was run?
A: The value was “not influenced”.

Q: For ecotin: exogenous protease inhibitor, which “influence on abundance of alpha6p” value [1] is on record?
A: Its value is “not influenced”.

Q: For `CNC(=O)[C@H](Cc1ccccc1)NC(=O)[C@H](CC(C)C)[C@H](CSc1cccs1)C(=O)NO` [BB94], which “influence on abundance of alpha6p” value [1] is on record?
A: Its value is “not influenced”.

B1: alpha6p: 70-kDa, naturally occurring truncated form of the alpha6 integrin (protein)
chain: VNSLPEVLPILNSNEAKTVQTDVHFLKEGCGDDNVCNSNLKLEYKFGTREGNQDKFSYLPIQKGIPELVLKDQKDIALEITVTNSPSDPRNPRKDGDDAHEAKLIATFPDTLTYSAYRELRAFPEKQLSCVANQNGSQADCELGNPFKRNSSVTFYLILSTTEVTFDTTDLDINLKLETTSNQDNLAPITAKAKVVIELLLSVSGVAKPSQVYFGGTVVGEQAMKSEDEVGSLIEYEFRVINLGKPLKNLGTATLNIQWPKEISNGKWLLYLMKVESKGLEQIVCEPHNEINYLKLKESHNSRKKRELPEKQIDDSRKFSLFPERKYQTLNCSVNVRCVNIRCPLRGLDSKASLVLRSRLWNSTFLEEYSKLNYLDILLRASIDVTAAAQNIKLPHAGTQVRVTVFPSKTVAQYSGVAWWIILLAVLAGILMLALLVFLLWKCGFFKRSRYDDSIPRYHAVRIRKEEREIKDEKHMDNLEKKQWITKWNENESYS
Q: For B1, which “surface half-life relative to full-length alpha6 integrin” value ([3]; surface of DU145H cells) is on record?
A: The value was about 3 times.

Q: What about the “half-life on the cell surface” value ([3]; surface of DU145H cells, 24, 48, 72 h after biotinylation) of the same molecule?
A: Its value is about 72 h.
